{
  "source": "paper PMC12020230",
  "about": "(Fluids and Barriers of the CNS, 2025)",
  "key": {"choroid plexus": {"tested_on": "choroid plexus", "test": "^86Rb^+ efflux from excised choroid plexus upon PKA inhibition", "assay_type": "cell-based, rat", "details": "H89 50 µM vs control, n = 5 of each, P < 0.01"}, "patients": {"tested_on": "patients", "details": "midazolam anaesthesia, ref [48]; cited from earlier work"}, "[1]": {"tested_on": "idiopathic intracranial hypertension (IIH) patients", "details": "small clinical trial, ref [27]; cited from earlier work"}, "[2]": {"details": "ref [58]; cited from earlier work"}},
  "data": [
    {"compound": "O=S(=O)(NCCNC/C=C/c1ccc(Br)cc1)c1cccc2cnccc12", "note": "[H89]", "values": [
      {"measurement": "reduction of K^+ efflux across the luminal membrane", "setting": "choroid plexus", "result": 25, "unit": "%"}
    ]},
    {"compound": "Cc1ncc2n1-c1ccc(Cl)cc1C(c1ccccc1F)=NC2", "note": "[midazolam]", "values": [
      {"measurement": "effect on ICP and perfusion pressure", "setting": "patients", "result": "reported to modulate ICP and perfusion pressure in patients"}
    ]},
    {"compound": "Exenatide: GLP-1R agonist Exenatide, which has the same amino acid sequence as Ex4", "values": [
      {"measurement": "ICP reductions", "setting": "[1]", "result": "1–3 mmHg"}
    ]},
    {"compound": "semaglutide: another GLP-1 receptor agonist, semaglutide", "values": [
      {"measurement": "risk of NAION", "setting": "[2]", "result": "associated with increased risk of non-arteritic anterior ischemic optic neuropathy (NAION)"}
    ]}
  ]
}
